Test results published in publication PMC9366509 (Inorganic chemistry, 2022).
Where two headings read alike, the source gives them in different places.

What was measured:
[1] = for pPb (pM), -log [Pb]free: [Pb]tot = 10^-6 M, [L]tot = 10^-5 M; for pPb (pM), -log [Pb]free / log K'Pb (conditional stability constant): pH 7.4, 25 °C, I = 0.1 M
[2] = Non-radioactive Pb2+ challenge; assay type: physicochemical; conditions: 20-fold excess non-radioactive Pb, after 72 hours; 203Pb complex
[3] = Chelator protonation constants by pH potentiometry; assay type: physicochemical; conditions: I = 0.1 M KCl, 25 °C
[4] = EDTA challenge; assay type: physicochemical; conditions: 20-fold excess EDTA, after 72 hours; 203Pb complex
[5] = cited from earlier work
[6] = Pb2+ complex, cited from earlier work
[7] = pH 7.4
[8] = Pb2+ complex, I = 0.1 M KCl, 25 °C

| Structure (SMILES) | log KPbHL [1, 8] | log KPbL (thermodynamic stability constant, log KML) [1, 8] | pPb (pM), -log [Pb]free [1] | log K'Pb (conditional stability constant) [1] | log K1 (protonation constant) [3] | log K2 (protonation constant) [3] | log K3 (protonation constant) [3] | log K4 (protonation constant) [3] | further results |
| --- | --- | --- | --- | --- | --- | --- | --- | --- | --- |
| c1ccc(CN2CCN(Cc3ccccn3)CCN(Cc3ccccn3)CCN(Cc3ccccn3)CC2)nc1 [Cyclen-4Py, 1,4,7,10-tetrakis(pyridin-2-ylmethyl)-1,4,7,10-tetraazacyclododecane] | 2.06(9) | 19.95(3) | 17.88 | 16.93 | 10.05(4) | 7.53(2) | 3.54(7) | 2.23(6) | complex remained intact, non-radioactive Pb2+ challenge [2]: 98.0 ± 0.4%; complex remained intact, EDTA challenge [4]: 98.1 ± 0.5% |
| c1ccc(CN2CCOCCN(Cc3ccccn3)CCN(Cc3ccccn3)CCOCCN(Cc3ccccn3)CC2)nc1 [Crown-4Py, 4,7,13,16-tetrakis(pyridin-2-ylmethyl)-1,10-dioxa-4,7,13,16-tetraazacyclooctadecane] | 5.22(1) | 13.29(5) | 13.40 | 12.45 | 7.91(4) | 7.33(4) | 4.64(1) | 4.00(6) | log KPbH2L [1, 8]: 3.50(8) |
| NC(=O)CN1CCN(CC(N)=O)CCN(CC(N)=O)CCN(CC(N)=O)CC1 [DOTAM, 1,4,7,10-tetrakis(carbamoylmethyl)-1,4,7,10-tetraazacyclododecane] |  |  |  |  |  |  |  |  | log K1 (protonation constant) ([5]; I = 0.1 M NaNO3): 7.70(1); log K2 (protonation constant) ([5]; I = 0.1 M NaNO3): 6.21(1); log KPbL (thermodynamic stability constant, log KML) ([6]; I = 0.1 M NaNO3): >19 |
| O=C(O)CN1CCN(CC(=O)O)CCN(CC(=O)O)CCN(CC(=O)O)CC1 [DOTA, 1,4,7,10-tetraazacyclododecane-1,4,7,10-tetraacetic acid] |  |  |  |  |  |  |  |  | log K'Pb (conditional stability constant) [7]: 15.64; log K1 (protonation constant) ([5]; I = 0.1 M Me4NNO3): 12.09; log K2 (protonation constant) ([5]; I = 0.1 M Me4NNO3): 9.76; log K3 (protonation constant) ([5]; I = 0.1 M Me4NNO3): 4.559; log K4 (protonation constant) ([5]; I = 0.1 M Me4NNO3): 4.09; log KPbL (thermodynamic stability constant, log KML) ([6]; I = 0.1 M NaCl): 25.3(1)[39] |
| c1ccc(CN2CCOCCOCCN(Cc3ccccn3)CCOCCOCC2)nc1 [NOON-2Py, 7,16-bis(pyridin-2-ylmethyl)-1,4,10,13-tetraoxa-7,16-diazacyclooctadecane] |  |  | 12.29 | 11.33 |  |  |  |  | log K1 (protonation constant) ([5]; I = 0.1 M KCl): 7.44; log K2 (protonation constant) ([5]; I = 0.1 M KCl): 6.26; log K3 (protonation constant) ([5]; I = 0.1 M KCl): 1.38; log KPbL (thermodynamic stability constant, log KML) ([6]; I = 0.1 M KCl): 11.67 |
